# Assay results published in US20220306623A1, “PYRIDYL OR PYRIMIDYL MTOR KINASE INHIBITORS” (GLAXOSMITHKLINE INTELLECTUAL PROPERTY DEVELOPMENT LIMITED, priority 2019, published 2022).
# Tested on: phosphorylated Akt at serine 473 (pAKTs473) in primary lung fibroblasts derived from explanted tissue
# Assay: Phosphorylated Akt (Ser473) in vitro immunoassay (MSD), fibroblasts from explanted tissue
# Type: cell-based
# Conditions: Homo sapiens, Primary lung fibroblast, 96-well, compound 2 h, PDGF-BB 10 ng/ml 15 min, read-out: mean pIC50, pAKTs473 immunoassay (converted)
# Text: Immunoassay using the Meso Scale Discovery (MSD) platform to measure the effect of test compounds on phosphorylated Akt at serine 473 (pAKTs473) in primary lung fibroblasts derived from explanted tissue. The human biological samples were sourced ethically and their research use was in accord with the terms of the informed consents under an IRB/EC approved protocol.
# Human lung fibroblasts were routinely maintained in Dulbecco's Modified Eagle Medium (DMEM; Gibco, catalogue no. 21969-035) supplemented with 10% foetal bovine serum (FBS (heat-inactivated); Gibco, catalogue no. 10270-106) and 4 mM L-glutamine (Gibco, catalogue no. 25030024) at 37° C. in 10% CO2.
# For the assay, cells were harvested using Trypsin/EDTA (Gibco, catalogue no. 25300-062), resuspended to give 1.2×10^5 cells/ml and 100 ul/well seeded into 96-well plates (Corning, Catalogue No. 3596) in DMEM supplemented with 0.4% FCS and 4 mM L-glutamine and incubated overnight at 37° C. in 10% CO2.
# Test compounds were dissolved in 100% DMSO to give 10 mM stock solutions and serially diluted to generate a 10-point concentration response curve. Compounds were further diluted 100-fold into 96-well V-bottom polypropylene plates (Greiner, Catalogue no. 651201) with DMEM supplemented with 0.4% FCS and 4 mM L-glutamine to give 100 µM top compound concentration in 1% DMSO.
# Compounds were further diluted 10-fold by transfer to 96-well plates containing cells ([…] top concentration, 0.1% DMSO final) and incubated for 2 h at 37° C. in 10% CO2, prior to stimulation with platelet-derived growth factor (PDGF)-BB (Gibco, Catalogue no. PHG0041) at 10 ng/ml (final) for 15 min at 37° C. in 10% CO2. Cell assay plates were then incubated on ice and treated with lysis buffer (Cell Signalling Technology, Catalogue No. 9803) containing protease and phosphatase inhibitors (Halt, Thermo Scientific, Catalogue No. 78444) for 30 min.
# MSD plates (MSD, Phospho(Ser473)/Total Akt Whole Cell Lysate Kit, Catalogue No. K15100D-3) were blocked with 1×blocking buffer as per the manufacturer's instructions at RT with shaking, followed by washing (×3) with Tris-buffered saline containing 0.05% Tween-20 (TBST). Cell lysates (30 ul) were added and MSD plates incubated for 1 h at RT with shaking.
# Plates were washed with TBST (×3), prior to addition of SULFO-TAG Anti-Total Akt Antibody as per the manufacturer's instructions and shaken at RT for 1 h. After washing with 1×TBST (×3), read buffer (1×) (MSD, Catalogue No. R92TC-1) was added as per the manufacturer's instructions before detecting electrochemiluminescence (MSD Sector Imager 600).
# Data analysis was performed using non-linear regression analysis to determine IC50 values for test compounds. Minimum (no PDGF-BB stimulation) and maximum responses (+PDGF-BB stimulation) were monitored for assay quality control.
row,Structure (SMILES),IC50
1,"CC[C@H]1COCCN1c1cc(CS(C)(=O)=O)nc(-c2ccc3[nH]c(CNC)cc3n2)n1 [Example 1, [(5-{4-[(3S)-3-ethylmorpholin-4-yl]-6-(methanesulfonylmethyl)pyrimidin-2-yl}-1H-pyrrolo[3,2-b]pyridin-2-yl)methyl](methyl)amine]",< 0.1 µM
2,"CC[C@H]1COCCN1c1cc(CS(N)(=O)=O)nc(-c2ccc3[nH]c(CNC)cc3n2)n1 [Example 6, {6-[(3S)-3-ethylmorpholin-4-yl]-2-{2-[(methylamino)methyl]-1H-pyrrolo[3,2-b]pyridin-5-yl}pyrimidin-4-yl}methanesulfonamide]",< 0.1 µM
3,"CCc1cc2nc(-c3nc(CS(C)(=O)=O)cc(N4C(=O)COC[C@@H]4CC)n3)ccc2[nH]1 [Example 15, (5S)-5-ethyl-4-(2-{2-ethyl-1H-pyrrolo[3,2-b]pyridin-5-yl}-6-(methanesulfonylmethyl)pyrimidin-4-yl)morpholin-3-one]",< 0.1 µM
4,"CC[C@H]1COCC(=O)N1c1cc(CS(C)(=O)=O)cc(-c2ccc3[nH]c(C)cc3n2)n1 [Example 24, (S)-5-ethyl-4-(6-(2-methyl-1H-pyrrolo[3,2-b]pyridin-5-yl)-4-((methylsulfonyl)methyl)pyridin-2-yl)morpholin-3-one]",< 0.1 µM

# Tested on: type I collagen deposition in primary lung fibroblasts derived from human tissue
# Assay: Type I collagen deposition (scar-in-a-jar) high content screening assay
# Type: cell-based
# Conditions: Primary lung fibroblast, 72 h, human pulmonary fibroblasts, 96-well, TGFβ-1 1 ng/ml 72 h, collagen intensity, read-out: mean pIC50, type I collagen deposition (scar-in-a-jar) (converted)
# Experimental: Cellular type I collagen deposition was measured by adapting a published method; scar-in-a-jar (Chen et al., 2009) to primary lung fibroblasts derived from human tissue and combining with high content analysis to permit fluorescent quantification of collagen deposited in the extracellular matrix (ECM). The human biological samples were sourced ethically and their research use was in accord with the terms of the informed consents under an IRB/EC approved protocol. Human pulmonary fibroblasts were maintained in DMEM media (Gibco, Catalogue No 21969) supplemented with 4 mM L-glutamine (Gibco Catalogue No 25030-024) and 100/heat inactivated FBS (Gibco #10270-106, Lot #42F6663K) at 37° C. in 10%/CO2. Cells were harvested and seeded at 10,000 cells per well (85 μL/well) into black walled 96 well imaging plates (BD Falcon, 353219) in assay media (0.4%/heat inactivated FBS, 4 mM L-glutamine) and incubated overnight at 37° C., 10%/CO2.
# Test compounds were dissolved in 1000/DMSO to give 10 mM stocks which were further diluted (serial 1:3) to generate 10 point concentration response curves. Assay media was supplemented with 112.5 mg/ml Ficoll 70 (Sigma, Catalogue No F2878), 75 mg/ml Ficoll 400 (Sigma, Catalogue No F4375) and 50 µg/ml ascorbic acid (Sigma, Catalogue No A8960). 3 μL compound were added to 297 μL assay media (10× compound final concentration in 1% DMSO).
# Diluted compounds (15 μL) were transferred to plates containing cells and incubated for 3 h at 37° C. in 10% CO2. Transforming growth factor (TGF)β-1 (R&D Systems, Catalogue No 100-B/CF) was reconstituted according to manufacturer's instructions to give 10 µg/mL (stock) and further diluted (1 in 3333) in assay media containing Ficoll and ascorbic acid. 50 μL TGFβ-1 was added to cell plates (1 ng/ml final) and cells incubated for 72 h at 37° C. in 10% CO2.
# Media was removed and cells were fixed with 50 µL/well 100% ice-cold methanol (2 min). Methanol was decanted and cells washed with PBS (3×). To permeabilise, cells were incubated with PBS containing 0.1% Triton X 100 for 90 sec, followed by PBS wash (3×). Cells were incubated with mouse anti human type I collagen monoclonal antibody (Sigma, Catalogue No C2456) diluted 1:1000 in PBS overnight at 4° C. Cells were washed with PBS containing 0.05% Tween-20 (3×) and incubated with secondary alexa fluor 488 goat-anti-mouse antibody (Invitrogen, Catalogue No A11001, 1 in 500 in PBS) and Hoechst 33342 (Sigma, Catalogue No H21492), 1 in 10000 in PBS) for 1 h at RT, prior to washing with PBS containing 0.05% Tween (×3) before finally adding 200 µL/well PBS.
# Type I collagen immunoreactivity was detected using the Thermofisher CellInsight NXT set to excitation and emission wavelengths for DAPI and FITC with exposure adjusted to appropriate levels. Images were analysed using Cellomics Studio software (Version 6.6.0, build 8153) and computational algorithms to quantify “collagen intensity” and “cell count”.
# Data analysis was performed by determining % response values for test compounds relative to the maximum (TGFβ-1 stimulation) fitting a ‘log(inhibitor) vs. response-Variable slope (four parameters)’ curve and recording pIC50 (inverse of Log IC50) values for test compounds.
row,Structure (SMILES),IC50
1,"CC[C@H]1COCCN1c1cc(CS(C)(=O)=O)nc(-c2ccc3[nH]c(CO)cc3n2)n1 [Example 2, (S)-(5-(4-(3-ethylmorpholino)-6-((methylsulfonyl)methyl)pyrimidin-2-yl)-1H-pyrrolo[3,2-b]pyridin-2-yl)methanol]",< 3.98 µM
2,"CC[C@H]1COCCN1c1cc(C2(S(C)(=O)=O)CCOCC2)nc(-c2ccc3[nH]c(CO)cc3n2)n1 [Example 4, (5-{4-[(3S)-3-ethylmorpholin-4-yl]-6-(4-methanesulfonyloxan-4-yl)pyrimidin-2-yl}-1H-pyrrolo[3,2-b]pyridin-2-yl)methanol]",> 3.98 µM
3,"CC[C@H]1COCCN1c1cc(CS(N)(=O)=O)nc(-c2ccc3[nH]c(CNC)cc3n2)n1 [Example 6, {6-[(3S)-3-ethylmorpholin-4-yl]-2-{2-[(methylamino)methyl]-1H-pyrrolo[3,2-b]pyridin-5-yl}pyrimidin-4-yl}methanesulfonamide]",> 3.98 µM
4,"CNCc1cc2nc(-c3cc(CS(C)(=O)=O)cc(N4CCO[C@H](C)[C@H]4C)n3)ccc2[nH]1 [Example 8, 1-(5-(6-((2R,3R)-2,3-dimethylmorpholino)-4-((methylsulfonyl)methyl)pyridin-2-yl)-1Hpyrrolo[3,2-b]pyridin-2-yl)-Nmethylmethanamine]",< 3.98 µM
5,"CC[C@H]1COCCN1c1cc(C2(S(C)(=O)=O)CCNCC2)cc(-c2ccc3[nH]c(C)cc3n2)n1 [Example 18, (S)-3-ethyl-4-(6-(2-methyl-1H-pyrrolo[3,2-b]pyridin-5-yl)-4-(4-(methylsulfonyl)piperidin-4-yl)pyridin-2-yl)morpholine]",< 3.98 µM
6,CC[C@H]1COCC(=O)N1c1cc(CS(C)(=O)=O)cc(-c2ccc3[nH]c(CO)cc3n2)n1 [Example 27],< 3.98 µM
